# Data taken from US20100291236A1, “OSMIUM COMPOUNDS” (THE UNIVERSITY OF WARWICK, priority 2006, published 2010).
# Read-outs that look alike come from different tables or passages of the source.
# Legend:
# [1] = Acidity (pKa / pKa*) of coordinated water, 1H NMR pH* titration
# From the text: pKa* calculations. […] The chemical shifts of the arene ring protons were plotted against pH*. The pH* titration curves were fitted to the Henderson-Hasselbalch equation, with the assumption that the observed chemical shifts are weighted averages according to the populations of the protonated and deprotonated species.
# [2] = test system: human lung A549 cancer cells; experiment: Cytotoxicity towards A549 cells, sulforhodamine B (SRB) assay; type: cell-based
# Experimental: (§1) Experimental: Cytotoxicity Towards A2780 and A549 Human Cancer Cells. After plating, human ovarian A2780 cancer cells were treated with Os^II complexes on day 3, and human lung A549 cancer cells on day 2, at concentrations ranging from 2 μM to 50 μM. Solutions of the Os^II complexes were made up in 0.125% DMSO to assist dissolution. Cells were exposed to the complexes for 24 h, washed, supplied with fresh medium, allowed to grow for three doubling times (72 h), and then the protein content measured (proportional to cell survival) using the sulforhodamine B (SRB) assay.
# (§2) Cancer Cell Cytotoxicity. After plating, human ovarian A2780 cancer cells were treated with OsII complexes on day 3, and human lung A549 cancer cells on day 2, at concentrations ranging from 0.1 μM to 100 μM. Solutions of the OsII complexes were made up in 0.125% DMSO to assist dissolution. Cells were exposed to the complexes for 24 h, washed, supplied with fresh medium, allowed to grow for three doubling times (72 h), and then the protein content measured (proportional to cell survival) using the sulforhodamine B (SRB) assay.10
# [3] = test system: human ovarian A2780 cancer cells; experiment: Cytotoxicity towards A2780 cells, sulforhodamine B (SRB) assay; type: cell-based
# Experimental: as §1, §2
# [4] = Hydrolysis (aquation) kinetics followed by 1H NMR; type: physicochemical
# Experimental: Hydrolysis. […] The rate of hydrolysis was determined by fitting plots of concentrations (determined by ^1H NMR peak integrals) versus time to a pseudo first-order equation using ORIGIN version 5.0 (Microcal Software Ltd.).
# 9-ethyl adenine (9EtA) = experiment: Reaction with nucleobase model 9-ethyl adenine, 1H NMR; type: binding; details: for % 9EtA nucleobase adduct: 1 mM complex, 1 mol equivalent 9EtA, D2O; for binding to 9EtA (nucleobase adduct formation): time not given; for +1 eq. 9-EtA (% adduct formation): pH* close to 7.4, 298 K
# Experimental: (§3) Since DNA is believed to be the main target for metal anticancer drugs, nucleobase binding reactions of compounds 3-6, with nucleobase models, 9-ethyl guanine (9EtG) and 9-ethyl adenine (9EtA), were investigated.
# (§4) Solutions of 3-6 (1 mM) (present as an equilibrium between 3-6 and their respective aqua adducts as the major species) with 1 mol equivalent of 9EtG (Table 14) or 9EtA (Table 15) in D2O were prepared and ^1H NMR spectra were taken at different time intervals.
# (§5) Interactions with Nucleobases. The reaction of compounds 8-12 with nucleobases typically involved addition of a solution containing 1 mol equiv of nucleobase in D2O, to an equilibrium solution of compounds 8-12 in D2O (>90% aqua). The pH* value of the sample was adjusted if necessary so as to remain close to 7.4 (physiological). ^1H NMR spectra of these solutions were recorded at 298 K after various time intervals.
# [5] = Effect of chloride concentration on aqua adduct formation; type: physicochemical; details: 1 mM complex in D2O, t = 26 h
# [6] = as above; type: physicochemical; details: 1 mM complex in D2O, t = 10 min
# From the text: The effects of chloride levels on the distribution of AFAP42 (“prodrug”) and its aqua analogue (“active species”) were investigated. […] Results are summarised in table 6, showing how the hydrolysis of AFAP42 is suppressed in solutions with chloride concentrations similar to those found in blood plasma. At chloride concentrations typical of the cells cytoplasm, complex AFAP42 hydrolyses to some extent and at chloride concentrations typical of the nucleus (where the proposed target, DNA, can be found), the complex is present predominantly as the “active species” the aqua complex.
# The effects of chloride concentrations typical of blood plasma (100 mM), cell cytoplasm (22.7 mM) and cell nucleus (4 mM) on the aqueous chemistry of 3 and 6 were investigated. ^1H NMR spectra of 3 or 6 (1 mM) were recorded within 10 min of sample preparation and after incubation at 310 K for 24 h.
# 9-ethyl guanine (9EtG) = experiment: Reaction with nucleobase model 9-ethyl guanine, 1H NMR; type: binding; details: for % 9EtG nucleobase adduct: 1 mM complex, 1 mol equivalent 9EtG, D2O; for binding to 9EtG (nucleobase adduct formation): time not given; for +1 eq. 9-EtG (% adduct formation): pH* close to 7.4, 298 K
# Experimental: as §3, §4, §5
# [7] = Table 7, 24 h exposure, 72 h growth, 2-50 μM, read-out: IC50/μM A549
# [8] = Table 7, 24 h exposure, 72 h growth, 2-50 μM, read-out: IC50/μM A2780
# [9] = Table 19, read-out: IC50 (μM) in A2780
# [10] = Table 8, compounds 1-6, read-out: A549 IC50
# [11] = 298 K, 5% MeOD-d4/95% D2O, pH* 2
# [12] = Table 8, compounds 1-6, read-out: A2780 IC50
# [13] = 288 K, 5% MeOD-d4/95% D2O, pH* 2
Structure (SMILES),"IC50 [2, 10]","Hydrolysis k/h^−1 [4, 11]","IC50 [3, 12]",pKa* of the aqua adduct [1],% 9EtA nucleobase adduct (9-ethyl adenine (9EtA); t = 10),% 9EtA nucleobase adduct (9-ethyl adenine (9EtA); t = 24 h),% 9EtA nucleobase adduct (9-ethyl adenine (9EtA); t = 72 h),"Hydrolysis k/h^−1 [4, 13]",% 9EtG nucleobase adduct (9-ethyl guanine (9EtG); t = 10),% 9EtG nucleobase adduct (9-ethyl guanine (9EtG); t = 24 h),% 9EtG nucleobase adduct (9-ethyl guanine (9EtG); t = 72 h),also measured
CC(=O)C=C(C)[O][Os][Cl].Cc1ccc(C(C)C)cc1 [AFAP29],–,–,–,–,–,–,–,–,–,–,–,"pKa of water coordinated on hydrolysis (aqua adduct of complex) [1]: 7.63; IC50 [2, 7]: > 100 µM; IC50 [3, 8]: > 100 µM"
"C1=CCC2=C(C1)Cc1ccccc1C2.F[B-](F)(F)F.NCCN.[Cl][Os+] [AFAP65, [(η^6-THA)Os(en)Cl]BF4]",–,–,–,–,–,–,–,–,–,–,–,"pKa of water coordinated on hydrolysis (aqua adduct of complex) [1]: 6.33; IC50 [2, 7]: 6.4 µM; IC50 [3, 8]: 9.4 µM"
"[NH2][Pt]([NH2])([Cl])[Cl] [CDDP, cisplatin, reference compound]",–,–,–,–,–,–,–,–,–,–,–,"IC50 [3, 9]: ~0.5 µM"
"O=C([O][Os][Cl])c1cccc(Br)n1.c1ccc(-c2ccccc2)cc1 [Compound 1, [(η^6-bip)Os(6-Br-pico)Cl]]",> 50 µM,0.345 ± 0.0002 h⁻¹,> 50 µM,–,–,–,–,–,–,–,–,–
"O=C([O][Os][Cl])c1cccc(O)n1.c1ccc(-c2ccccc2)cc1 [Compound 2, [(η^6-bip)Os(6-OH-pico)Cl]]",> 50 µM,–,> 50 µM,–,–,–,–,–,–,–,–,–
"Cc1cccc(C(=O)[O][Os][Cl])n1.c1ccc(-c2ccccc2)cc1 [Compound 3, [(η^6-bip)Os(6-Me-pico)Cl]]",> 50 µM,0.676 ± 0.039 h⁻¹,> 50 µM,6.34,0%,9%,9%,0.219 ± 0.005 h⁻¹,0%,30%,30%,binding to 9EtA (nucleobase adduct formation) (9-ethyl adenine (9EtA)): 9%; % aqua adduct ([5]; 4 mM NaCl): 70%; % aqua adduct ([5]; 22.7 mM NaCl): 49%; % aqua adduct ([5]; 100 mM NaCl): 27%; % aqua adduct ([6]; 4 mM NaCl): 50%; % aqua adduct ([6]; 22.7 mM NaCl): 60%; % aqua adduct ([6]; 100 mM NaCl): 35%; binding to 9EtG (nucleobase adduct formation) (9-ethyl guanine (9EtG)): 30%
"O=C([O][Os][Cl])c1cc(Cl)ccn1.c1ccc(-c2ccccc2)cc1 [Compound 4, [(η^6-bip)Os(4-Cl-pico)Cl]]",10 to 50 µM,0.656 ± 0.032 h⁻¹,4.8 µM,6.30,0%,62%,71%,0.288 ± 0.001 h⁻¹,0%,59%,76%,"Extent of hydrolysis at equilibrium (aqua adduct) ([4]; 5% MeOD-d4/95% D2O, pH* 2): 100%; Activity in A2780 cancer cell line [3]: toxic"
"O=C(O)c1ccnc(C(=O)[O][Os][Cl])c1.c1ccc(-c2ccccc2)cc1 [Compound 5, [(η^6-bip)Os(4-CO2H-pico)Cl]]",> 50 µM,0.384 ± 0.004 h⁻¹,> 50 µM,6.61,0%,100%,100%,0.158 ± 0.011 h⁻¹,0%,100%,100%,"binding to 9EtA (nucleobase adduct formation) (9-ethyl adenine (9EtA)): 100%; Extent of hydrolysis at equilibrium (aqua adduct) ([4]; 5% MeOD-d4/95% D2O, pH* 2): 100%; binding to 9EtG (nucleobase adduct formation) (9-ethyl guanine (9EtG)): 100%"
"Cc1cc(C)c(NC(=O)c2ccccn2)c(C)c1.Cc1ccc(C(C)C)cc1.F[P-](F)(F)(F)(F)F.[Cl][Os+] [Compound 9, [(η^6-p-cym)Os(N-2,4,6-trimethyl-Ph-picolinamide)Cl]PF6]",–,–,–,–,–,–,–,–,–,–,–,"+1 eq. 9-EtA (% adduct formation) (9-ethyl adenine (9EtA); t = 0.17 h): 0%; +1 eq. 9-EtA (% adduct formation) (9-ethyl adenine (9EtA); t = 24 h): 0%; Rate of hydrolysis [4]: very slowly; Hydrolysis k/h^−1 ([4]; Table 18, 310 K, 0.8 mM): 0.16 ± 0.01 h⁻¹; Activity in A2780 cancer cell line [3]: inactive; IC50 [3, 9]: > 50 µM; +1 eq. 9-EtG (% adduct formation) (9-ethyl guanine (9EtG); t = 0.17 h): 0%; +1 eq. 9-EtG (% adduct formation) (9-ethyl guanine (9EtG); t = 24 h): 0%"
